Reference: ChEMBL document CHEMBL3046614, “Overexpression of the sterol 14α-demethylase gene (MgCYP51) in Mycosphaerella graminicola isolates confers a novel azole fungicide sensitivity phenotype” (Pest Manag Sci, 2012)
Converted amounts (≈) assume the structure as drawn. The source made the active and inactive calls. The rule behind the calls is not given here.

Tests used:
Zymoseptoria tritici [1] = experiment: Fungicidal activity against Zymoseptoria tritici isolate TAG74-3 with 120 bp insertion expressing CYP51 variant with combination of L50S, S188N, I381V, deltaY459/G460 and N513K mutations assessed as fungal growth inhibition; format: functional, organism-based
Zymoseptoria tritici [2] = experiment: Fungicidal activity against Zymoseptoria tritici isolate R03-54 without 120 bp insertion expressing CYP51 variant with combination of L50S, S188N, I381V, deltaY459/G460 and N513K mutations assessed as fungal growth inhibition; format: functional, organism-based
Zymoseptoria tritici [3] = experiment: Fungicidal activity against Zymoseptoria tritici isolate V18 with 120 bp insertion expressing CYP51 variant with combination of L50S, S188N, I381V, deltaY459/G460 and N513K mutations assessed as fungal growth inhibition; format: functional, organism-based
Zymoseptoria tritici [4] = experiment: Fungicidal activity against Zymoseptoria tritici isolate R03-29 without 120 bp insertion expressing CYP51 variant with combination of L50S, S188N, I381V, deltaY459/G460 and N513K mutations assessed as fungal growth inhibition; format: functional, organism-based
Zymoseptoria tritici [5] = experiment: Fungicidal activity against Zymoseptoria tritici isolate IPO323 without 120 bp insertion expressing wild type CYP51 assessed as fungal growth inhibition; format: functional, organism-based
Zymoseptoria tritici [6] = experiment: Fungicidal activity against Zymoseptoria tritici isolate TAG1-18 with 120 bp insertion expressing CYP51 variant with combination of L50S, S188N, I381V, deltaY459/G460 and N513K mutations assessed as fungal growth inhibition; format: functional, organism-based
Zymoseptoria tritici [7] = experiment: Fungicidal activity against Zymoseptoria tritici isolate R10-13 without 120 bp insertion expressing CYP51 variant with combination of L50S, S188N, I381V, deltaY459/G460 and N513K mutations assessed as fungal growth inhibition; format: functional, organism-based
Zymoseptoria tritici [8] = experiment: Fungicidal activity against Zymoseptoria tritici isolate OP7 with 120 bp insertion expressing CYP51 variant with combination of L50S, S188N, I381V, deltaY459/G460 and N513K mutations assessed as fungal growth inhibition; format: functional, organism-based
Zymoseptoria tritici [9] = experiment: Fungicidal activity against Zymoseptoria tritici isolate OP6 without 120 bp insertion expressing CYP51 variant with combination of L50S, S188N, I381V, deltaY459/G460 and N513K mutations assessed as fungal growth inhibition; format: functional, organism-based
Zymoseptoria tritici [10] = experiment: (§1) Fungicidal activity against Zymoseptoria tritici isolate OP7 with 120 bp insertion expressing CYP51 variant with combination of L50S, S188N, I381V, deltaY459/G460 and N513K mutations inoculated on compound pre-treated wheat cultivar Riband seedlings assessed as pycnidia formation at 28.13 ppm measured 21 days post fungal inoculation; format: functional, organism-based
Zymoseptoria tritici [11] = experiment: as §1, with “fungal DNA level” for “pycnidia formation”, “doses > 1/16 recommended field rate” for “28.13 ppm”; format: functional, organism-based
Zymoseptoria tritici [12] = experiment: as §1, with “TAG74-3” for “OP7”, “fungal DNA level” for “pycnidia formation”, “doses > 1/16 recommended field rate” for “28.13 ppm”; format: functional, organism-based
Zymoseptoria tritici [13] = experiment: as §1, with “R10-13 without” for “OP7 with”, “fungal DNA level” for “pycnidia formation”; format: functional
Zymoseptoria tritici [14] = experiment: as §1, with “doses > 1/16 recommended field rate” for “28.13 ppm”; format: functional, organism-based
Zymoseptoria tritici [15] = experiment: as §1, with “TAG74-3” for “OP7”; format: functional, organism-based
Zymoseptoria tritici [16] = experiment: as §1, with “TAG74-3” for “OP7”, “doses > 1/16 recommended field rate” for “28.13 ppm”; format: functional, organism-based
Zymoseptoria tritici [17] = experiment: as §1, with “fungal DNA level” for “pycnidia formation”; format: functional
Zymoseptoria tritici [18] = experiment: as §1, with “TAG74-3” for “OP7”, “fungal DNA level” for “pycnidia formation”; format: functional
Zymoseptoria tritici [19] = experiment: as §1, with “OP6 without” for “OP7 with”, “fungal DNA level” for “pycnidia formation”; format: functional
Zymoseptoria tritici [20] = experiment: as §1, with “fungal DNA level” for “pycnidia formation”, “39.06” for “28.13”; format: functional
Zymoseptoria tritici [21] = experiment: as §1, with “R10-13 without” for “OP7 with”, “fungal DNA level” for “pycnidia formation”, “39.06” for “28.13”; format: functional
Zymoseptoria tritici [22] = experiment: as §1, with “OP6 without” for “OP7 with”, “fungal DNA level” for “pycnidia formation”, “39.06” for “28.13”; format: functional
Zymoseptoria tritici [23] = experiment: as §1, with “39.06” for “28.13”; format: functional, organism-based
Zymoseptoria tritici [24] = experiment: as §1, with “TAG74-3” for “OP7”, “fungal DNA level” for “pycnidia formation”, “39.06” for “28.13”; format: functional
Zymoseptoria tritici [25] = experiment: as §1, with “TAG74-3” for “OP7”, “39.06” for “28.13”; format: functional, organism-based

| Structure (SMILES) | EC50 (Zymoseptoria tritici [1]) | EC50 (Zymoseptoria tritici [2]) | EC50 (Zymoseptoria tritici [3]) | EC50 (Zymoseptoria tritici [4]) | EC50 (Zymoseptoria tritici [5]) | EC50 (Zymoseptoria tritici [6]) | EC50 (Zymoseptoria tritici [7]) | EC50 (Zymoseptoria tritici [8]) | EC50 (Zymoseptoria tritici [9]) | further results |
| --- | --- | --- | --- | --- | --- | --- | --- | --- | --- | --- |
| OC(Cc1ccccc1Cl)(Cn1cncn1)C1(Cl)CC1 (stereo not drawn) [PROTHIOCONAZOLE-DESTHIO] | 0.221 µg/mL | 0.0055 µg/mL | 0.126 µg/mL | 0.0091 µg/mL | 0.00187 µg/mL (≈ 0.00599 µM) | 0.12 µg/mL | 0.0111 µg/mL | 0.135 µg/mL | 0.0126 µg/mL |  |
| CCCN(CCOc1c(Cl)cc(Cl)cc1Cl)C(=O)n1ccnc1 [PROCHLORAZ] | 0.624 µg/mL | 0.025 µg/mL | 0.239 µg/mL | 0.077 µg/mL | 0.015 µg/mL (≈ 0.0398 µM) | 0.294 µg/mL | 0.049 µg/mL | 0.229 µg/mL | 0.019 µg/mL |  |
| CC1(C)CCC(Cc2ccc(Cl)cc2)C1(O)Cn1cncn1 (stereo not drawn) [METCONAZOLE] | 1.39 µg/mL |  |  | 0.032 µg/mL | < 0.0002 µg/mL | 0.602 µg/mL | 0.097 µg/mL | 0.821 µg/mL | 0.051 µg/mL | Activity (Zymoseptoria tritici [10]): inactive; Activity (Zymoseptoria tritici [11]): Active; Activity (Zymoseptoria tritici [12]): Active; Activity (Zymoseptoria tritici [13]): 106 pg; Activity (Zymoseptoria tritici [14]): Active; Activity (Zymoseptoria tritici [15]): inactive; Activity (Zymoseptoria tritici [16]): Active; Activity (Zymoseptoria tritici [17]): 5674 pg; Activity (Zymoseptoria tritici [18]): 1600 pg; Activity (Zymoseptoria tritici [19]): 65 pg |
| CN(C/C=C/C#CC(C)(C)C)Cc1cccc2ccccc12 [TERBINAFINE] | 0.061 µg/mL |  | 0.053 µg/mL | 0.063 µg/mL | 0.047 µg/mL (≈ 0.161 µM) | 0.053 µg/mL | 0.082 µg/mL | 0.045 µg/mL | 0.048 µg/mL |  |
| Fc1ccc([C@]2(Cn3cncn3)O[C@H]2c2ccccc2Cl)cc1 [EPOXICONAZOLE] | 1.41 µg/mL | 0.092 µg/mL | 0.759 µg/mL | 0.067 µg/mL | 0.0015 µg/mL (≈ 0.00455 µM) | 0.911 µg/mL | 0.091 µg/mL | 0.819 µg/mL | 0.085 µg/mL | Activity (Zymoseptoria tritici [20]): 1600 pg; Activity (Zymoseptoria tritici [11]): Active; Activity (Zymoseptoria tritici [12]): Active; Activity (Zymoseptoria tritici [21]): 400 pg; Activity (Zymoseptoria tritici [14]): Active; Activity (Zymoseptoria tritici [16]): Active; Activity (Zymoseptoria tritici [22]): 14 pg; Activity (Zymoseptoria tritici [23]): inactive; Activity (Zymoseptoria tritici [24]): 9284 pg; Activity (Zymoseptoria tritici [25]): inactive |
| O=C(Nc1ccccc1-c1ccc(Cl)cc1)c1cccnc1Cl [BOSCALID] | 0.719 µg/mL | 0.766 µg/mL |  | 0.21 µg/mL | 0.554 µg/mL (≈ 1.61 µM) | 0.976 µg/mL |  | 0.808 µg/mL | 0.841 µg/mL |  |
| CC(C)(C)C(O)(CCc1ccc(Cl)cc1)Cn1cncn1 (stereo not drawn) [TEBUCONAZOLE] | 20.7 µg/mL | 1.5 µg/mL | 15.4 µg/mL | 2.7 µg/mL | 0.041 µg/mL (≈ 0.133 µM) | 7.81 µg/mL | 2.34 µg/mL | 8.22 µg/mL | 1.24 µg/mL |  |
